Values of other authors, collected in patent US11793953B2, “Inhalers and related methods” (Norton (Waterford) Limited, priority 2017, dated 2023).

For `FCC(F)(F)F` [HFA134a, 1,1,1,2-tetrafluoroethane], the surface tension (as liquid at 25° C.) is given as “about 8 mN/m” and the vapor pressure (at 20° C.) is given as 572 kpa.
